Measured values: PMC4730408, “Genistein and Glyceollin Effects on ABCC2 (MRP2) and ABCG2 (BCRP) in Caco-2 Cells” (International Journal of Environmental Research and Public …, 2015)

Target: MRP2 (ABCC2, multidrug resistance protein 2) (Homo sapiens, UniProt Q92887)
Experiment: calcein retention (calcein-AM) in Caco-2 cells; CDF transport across Caco-2 monolayers
Type: cell-based

MRP2 (ABCC2, multidrug resistance protein 2), sequence (Q92887 whole entry): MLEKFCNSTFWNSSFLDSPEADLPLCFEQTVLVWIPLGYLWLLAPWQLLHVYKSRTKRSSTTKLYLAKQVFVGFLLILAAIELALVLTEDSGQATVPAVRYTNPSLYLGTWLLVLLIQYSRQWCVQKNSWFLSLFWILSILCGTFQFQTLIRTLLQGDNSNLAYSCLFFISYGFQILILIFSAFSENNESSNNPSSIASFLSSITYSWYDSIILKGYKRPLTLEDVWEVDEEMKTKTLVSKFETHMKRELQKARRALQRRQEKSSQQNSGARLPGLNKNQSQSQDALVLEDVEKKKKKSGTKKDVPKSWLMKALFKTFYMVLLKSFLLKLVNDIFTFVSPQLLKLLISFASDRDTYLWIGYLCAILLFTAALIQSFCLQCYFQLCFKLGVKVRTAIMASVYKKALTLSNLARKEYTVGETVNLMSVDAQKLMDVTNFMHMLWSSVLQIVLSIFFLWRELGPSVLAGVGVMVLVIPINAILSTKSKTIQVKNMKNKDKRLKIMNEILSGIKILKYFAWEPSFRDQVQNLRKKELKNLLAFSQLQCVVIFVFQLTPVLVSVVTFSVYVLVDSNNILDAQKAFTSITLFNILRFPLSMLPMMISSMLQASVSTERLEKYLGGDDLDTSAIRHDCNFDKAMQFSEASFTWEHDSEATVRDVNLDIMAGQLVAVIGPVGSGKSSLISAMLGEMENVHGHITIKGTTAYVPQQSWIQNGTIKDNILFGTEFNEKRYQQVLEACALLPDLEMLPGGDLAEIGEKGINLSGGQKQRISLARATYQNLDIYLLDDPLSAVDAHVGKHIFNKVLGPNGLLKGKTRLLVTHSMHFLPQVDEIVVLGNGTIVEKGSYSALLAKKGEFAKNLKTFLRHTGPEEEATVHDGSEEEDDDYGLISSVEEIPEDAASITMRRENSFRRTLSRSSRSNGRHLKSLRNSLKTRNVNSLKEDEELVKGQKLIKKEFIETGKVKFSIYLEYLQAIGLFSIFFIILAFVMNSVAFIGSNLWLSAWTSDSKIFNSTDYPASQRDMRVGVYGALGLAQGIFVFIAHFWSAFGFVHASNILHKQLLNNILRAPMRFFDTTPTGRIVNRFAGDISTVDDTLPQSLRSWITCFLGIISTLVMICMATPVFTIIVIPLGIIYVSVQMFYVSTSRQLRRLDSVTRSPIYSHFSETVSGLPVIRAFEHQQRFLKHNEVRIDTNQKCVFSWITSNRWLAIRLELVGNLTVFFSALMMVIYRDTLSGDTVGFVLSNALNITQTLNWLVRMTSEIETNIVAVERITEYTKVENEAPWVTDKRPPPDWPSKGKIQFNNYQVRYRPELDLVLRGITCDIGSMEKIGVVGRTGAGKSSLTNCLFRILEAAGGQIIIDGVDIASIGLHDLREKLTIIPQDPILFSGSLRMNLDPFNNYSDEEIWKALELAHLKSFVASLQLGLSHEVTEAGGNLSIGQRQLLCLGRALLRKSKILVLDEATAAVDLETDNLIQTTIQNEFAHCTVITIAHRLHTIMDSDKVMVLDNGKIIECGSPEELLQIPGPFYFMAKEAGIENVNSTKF

EC50: 20 µM
Structure (SMILES): CN(C)C(=O)CCSC(SCCC(=O)O)c1cccc(/C=C/c2ccc3ccc(Cl)cc3n2)c1 (stereo not shown) [MK-571]
